{
  "source": "patent US8058295B2",
  "about": "“Cystic fibrosis transmembrane conductance regulator protein inhibitors and uses thereof” (The Regents of the University of California, priority 2002, dated 2011)",
  "key": {"[1]": {"experiment": "Pharmacokinetic analysis in rats after intravenous bolus", "assay_type": "in vivo", "method": "A bolus of ^14C-CFTRinh-172 (50 μCi) in PBS containing 3% DMSO (titrated to pH 7.4 using NaOH) was administered intravenously in rats over 1 min (male Sprague-Dawley rats, 360-420 grams) by an indwelling jugular catheter. Blood was collected from the catheter at specified times. ^14C-Radioactivity was determined in plasma (isolated by centrifugation of whole blood at 14,000 g for 10 min) by scintillation counting (Scintiverse SE, Fisher, Calif.) using a LS-6500 Multi-Purpose Scintillation Counter (Beckman). Pharmacokinetic analysis was done using WinNonLin software (Pharsight). Rats were sacrificed by pentobarbital overdose after collection of the final blood/tissue samples. All animal procedures were approved by the UCSF Committee on Animal Research."}, "[2]": {"tested_on": "intestinal fluid absorption", "experiment": "Fluid absorption in mouse closed intestinal loops", "assay_type": "in vivo, mice", "details": "20 μg intraperitoneal, measured at 30 min", "method": "FIG. 10 is a set of graphs providing the results of characterization of the mouse closed-intestinal loop model. Panel A (FIG. 10A): Intestinal loops were injected with 200 μL buffer and loop weight measured at indicated times (mean±SEM, 4 mice per time point). […] Inset (top) Chemical structure of CFTRinh-172. Panel B (FIG. 10B): Time course of cholera toxin-induced fluid secretion in mouse closed-loop model. […] Data for injected loops (1 μg cholera toxin/loop) as mean±SEM (4-6 mice).\nFirst, the kinetics of intestinal loop fluid absorption and secretion were determined to characterize the mouse model. To study absorption, loop fluid content was measured at specified times after injection of 200 μL of PBS into individual loops. […] To study secretion, intestinal loops were injected with cholera toxin (1 μg in 0.1 mL PBS)."}, "[3]": {"tested_on": "phosphatase activity", "experiment": "Phosphatase assay", "assay_type": "cell-based", "details": "5 μM"}, "[4]": {"molecular_target": "CFTR (Homo sapiens, UniProt P13569)", "sequence (P13569 whole entry)": "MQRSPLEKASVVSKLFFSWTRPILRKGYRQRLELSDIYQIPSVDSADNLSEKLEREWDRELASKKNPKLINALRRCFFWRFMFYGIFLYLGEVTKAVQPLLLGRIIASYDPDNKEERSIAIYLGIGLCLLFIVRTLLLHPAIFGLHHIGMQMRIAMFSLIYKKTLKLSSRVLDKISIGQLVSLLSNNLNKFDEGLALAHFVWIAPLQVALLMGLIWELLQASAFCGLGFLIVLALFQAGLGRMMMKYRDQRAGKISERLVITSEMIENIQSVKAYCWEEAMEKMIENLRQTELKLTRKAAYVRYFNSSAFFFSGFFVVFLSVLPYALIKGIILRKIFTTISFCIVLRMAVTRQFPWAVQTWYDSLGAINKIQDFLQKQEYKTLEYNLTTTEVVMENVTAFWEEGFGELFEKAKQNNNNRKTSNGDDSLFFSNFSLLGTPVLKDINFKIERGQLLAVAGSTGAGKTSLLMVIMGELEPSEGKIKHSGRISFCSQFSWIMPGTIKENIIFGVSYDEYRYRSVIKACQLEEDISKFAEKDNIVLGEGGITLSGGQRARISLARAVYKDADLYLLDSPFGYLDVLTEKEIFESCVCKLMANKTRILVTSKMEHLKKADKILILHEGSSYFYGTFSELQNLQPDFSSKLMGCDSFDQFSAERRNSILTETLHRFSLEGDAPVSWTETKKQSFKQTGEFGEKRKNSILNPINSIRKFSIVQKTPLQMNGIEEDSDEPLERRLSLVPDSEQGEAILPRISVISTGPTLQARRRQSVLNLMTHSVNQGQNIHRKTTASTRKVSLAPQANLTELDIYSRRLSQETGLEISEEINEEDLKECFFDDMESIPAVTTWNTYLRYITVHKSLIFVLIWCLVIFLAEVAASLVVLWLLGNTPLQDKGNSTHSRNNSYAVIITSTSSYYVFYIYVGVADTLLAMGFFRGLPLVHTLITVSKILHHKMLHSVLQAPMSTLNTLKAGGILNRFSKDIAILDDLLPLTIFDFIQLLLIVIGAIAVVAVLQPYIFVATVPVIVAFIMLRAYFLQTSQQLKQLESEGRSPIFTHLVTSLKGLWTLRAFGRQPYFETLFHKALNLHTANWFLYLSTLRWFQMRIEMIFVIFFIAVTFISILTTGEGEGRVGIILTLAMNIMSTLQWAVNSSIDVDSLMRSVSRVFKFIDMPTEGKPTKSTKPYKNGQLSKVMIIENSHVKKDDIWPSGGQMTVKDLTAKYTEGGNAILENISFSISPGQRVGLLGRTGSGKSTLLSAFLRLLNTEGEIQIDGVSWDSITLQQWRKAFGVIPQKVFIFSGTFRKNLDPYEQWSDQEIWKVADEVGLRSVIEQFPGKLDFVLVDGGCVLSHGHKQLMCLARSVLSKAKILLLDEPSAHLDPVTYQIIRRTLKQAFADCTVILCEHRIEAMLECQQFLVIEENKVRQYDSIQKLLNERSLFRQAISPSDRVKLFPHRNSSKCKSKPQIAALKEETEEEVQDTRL"}, "[5]": {"experiment": "Analysis of inhibitor metabolism by thin layer chromatography and autoradiography", "assay_type": "in vivo, mice", "details": "urine, serum, bile, liver homogenate; TLC autoradiography", "from_the_text": "Film was exposed for autoradiography for 48 hr (left panel) and 12 hr (right panel).\nAliquots of bodily fluids (plasma, urine, bile) and liver homogenate were spotted onto Silica plates and resolved by thin layer chromatography using a ethyl acetate:hexane:methanol (1:1:0.1) solvent system which gave rf ˜0.5 for the original inhibitor."}, "[6]": {"molecular_target": "wildtype CFTR (Homo sapiens, UniProt P13569)", "sequence (P13569 whole entry)": "as above", "experiment": "YFP fluorescence assay of CFTR-mediated I^− transport in FRT cells", "assay_type": "cell-based", "set-up": "expressed in transfected cells; host or cells: Fischer rat thyroid (FRT) cells"}, "[7]": {"details": "rat, i.v. bolus, 2-compartment model"}},
  "data": [
    {"smiles": "O=C(O)c1ccc(/C=C2\\SC(=S)N(c3cccc(C(F)(F)F)c3)C2=O)cc1", "note": "[CFTRinh-172, 3-[(3-trifluoromethyl)phenyl]-5-[(4-carboxyphenyl)methylene]-2-thioxo-4-thiazolidinone]", "values": [
      {"measurement": "detection in plasma", "setting": "[1]; 72 hr after administration", "value": "No ^14C-labeled CFTRinh-172 was detected"},
      {"measurement": "detection in liver or kidney homogenates", "setting": "[1]; 14 days after administration", "value": "No ^14C-labeled CFTRinh-172 was detected"},
      {"measurement": "area under curve (AUC)", "setting": "[1]; [7]", "value": 3800, "unit": "ng·h/mL"},
      {"measurement": "clearance", "setting": "[1]; [7]", "value": 99, "unit": "mL/h"},
      {"measurement": "elimination half-time", "setting": "[1]; [7]", "value": 10.3, "unit": "h"},
      {"measurement": "maximum serum concentration", "setting": "[1]; [7]", "value": 3.2, "unit": "µg/mL"},
      {"measurement": "redistribution half-time", "setting": "[1]; [7]", "value": 0.14, "unit": "h"},
      {"measurement": "volume of distribution", "setting": "[1]; [7]", "value": 1.2, "unit": "L"},
      {"measurement": "rate of fluid absorption", "setting": "[2]", "value": "did not alter the rate of fluid absorption"},
      {"measurement": "effect on phosphatase activity", "setting": "[3]", "value": "did not affect"},
      {"measurement": "IC50", "setting": "[4]", "value": "200 to 500", "unit": "nM"},
      {"measurement": "Kd", "setting": "[4]", "value": "~300", "unit": "nM"},
      {"measurement": "Hill coefficient", "setting": "[4]; dose-inhibition of short-circuit current", "value": "~1"},
      {"measurement": "chemical modification (metabolism)", "setting": "[5]", "value": "did not occur"},
      {"measurement": "inhibition of CFTR activation by other agonists", "setting": "[6]; 5 μM inhibitor, genistein, CPT-cAMP, CPX, 8-MPO, UCCF-029, UCCF-853 (all 50 μM)", "value": "effectively inhibited"},
      {"measurement": "t1/2 of inhibition", "setting": "[6]; after addition of 2 μM", "value": 4, "unit": "min"},
      {"measurement": "time to complete inhibition", "setting": "[6]; after addition of 2 μM", "value": "~10", "unit": "min"},
      {"measurement": "t1/2 of inhibition reversal after washout", "setting": "[6]; washout of 1 μM", "value": "~5", "unit": "min"}
    ]}
  ]
}
